Where two headings read alike, the source gives them in different places.
Legend:
HeLa cells = test: Cell permeability: western blot of acetylated H3 in treated HeLa cells; type: cell-based
Experimental: (A) western blot analysis of TTK21 untreated and treated HeLa cells for 24 hours. […] Primary probing of the blot is done with AcH3 and re-probing is done by H3 antibody.

p300 [1] = biological target: T1, p300 (Homo sapiens, UniProt Q09472); test: Gel fluorography HAT assay with p300; type: biochemical
T1 sequence (Q09472 whole entry, species assumed): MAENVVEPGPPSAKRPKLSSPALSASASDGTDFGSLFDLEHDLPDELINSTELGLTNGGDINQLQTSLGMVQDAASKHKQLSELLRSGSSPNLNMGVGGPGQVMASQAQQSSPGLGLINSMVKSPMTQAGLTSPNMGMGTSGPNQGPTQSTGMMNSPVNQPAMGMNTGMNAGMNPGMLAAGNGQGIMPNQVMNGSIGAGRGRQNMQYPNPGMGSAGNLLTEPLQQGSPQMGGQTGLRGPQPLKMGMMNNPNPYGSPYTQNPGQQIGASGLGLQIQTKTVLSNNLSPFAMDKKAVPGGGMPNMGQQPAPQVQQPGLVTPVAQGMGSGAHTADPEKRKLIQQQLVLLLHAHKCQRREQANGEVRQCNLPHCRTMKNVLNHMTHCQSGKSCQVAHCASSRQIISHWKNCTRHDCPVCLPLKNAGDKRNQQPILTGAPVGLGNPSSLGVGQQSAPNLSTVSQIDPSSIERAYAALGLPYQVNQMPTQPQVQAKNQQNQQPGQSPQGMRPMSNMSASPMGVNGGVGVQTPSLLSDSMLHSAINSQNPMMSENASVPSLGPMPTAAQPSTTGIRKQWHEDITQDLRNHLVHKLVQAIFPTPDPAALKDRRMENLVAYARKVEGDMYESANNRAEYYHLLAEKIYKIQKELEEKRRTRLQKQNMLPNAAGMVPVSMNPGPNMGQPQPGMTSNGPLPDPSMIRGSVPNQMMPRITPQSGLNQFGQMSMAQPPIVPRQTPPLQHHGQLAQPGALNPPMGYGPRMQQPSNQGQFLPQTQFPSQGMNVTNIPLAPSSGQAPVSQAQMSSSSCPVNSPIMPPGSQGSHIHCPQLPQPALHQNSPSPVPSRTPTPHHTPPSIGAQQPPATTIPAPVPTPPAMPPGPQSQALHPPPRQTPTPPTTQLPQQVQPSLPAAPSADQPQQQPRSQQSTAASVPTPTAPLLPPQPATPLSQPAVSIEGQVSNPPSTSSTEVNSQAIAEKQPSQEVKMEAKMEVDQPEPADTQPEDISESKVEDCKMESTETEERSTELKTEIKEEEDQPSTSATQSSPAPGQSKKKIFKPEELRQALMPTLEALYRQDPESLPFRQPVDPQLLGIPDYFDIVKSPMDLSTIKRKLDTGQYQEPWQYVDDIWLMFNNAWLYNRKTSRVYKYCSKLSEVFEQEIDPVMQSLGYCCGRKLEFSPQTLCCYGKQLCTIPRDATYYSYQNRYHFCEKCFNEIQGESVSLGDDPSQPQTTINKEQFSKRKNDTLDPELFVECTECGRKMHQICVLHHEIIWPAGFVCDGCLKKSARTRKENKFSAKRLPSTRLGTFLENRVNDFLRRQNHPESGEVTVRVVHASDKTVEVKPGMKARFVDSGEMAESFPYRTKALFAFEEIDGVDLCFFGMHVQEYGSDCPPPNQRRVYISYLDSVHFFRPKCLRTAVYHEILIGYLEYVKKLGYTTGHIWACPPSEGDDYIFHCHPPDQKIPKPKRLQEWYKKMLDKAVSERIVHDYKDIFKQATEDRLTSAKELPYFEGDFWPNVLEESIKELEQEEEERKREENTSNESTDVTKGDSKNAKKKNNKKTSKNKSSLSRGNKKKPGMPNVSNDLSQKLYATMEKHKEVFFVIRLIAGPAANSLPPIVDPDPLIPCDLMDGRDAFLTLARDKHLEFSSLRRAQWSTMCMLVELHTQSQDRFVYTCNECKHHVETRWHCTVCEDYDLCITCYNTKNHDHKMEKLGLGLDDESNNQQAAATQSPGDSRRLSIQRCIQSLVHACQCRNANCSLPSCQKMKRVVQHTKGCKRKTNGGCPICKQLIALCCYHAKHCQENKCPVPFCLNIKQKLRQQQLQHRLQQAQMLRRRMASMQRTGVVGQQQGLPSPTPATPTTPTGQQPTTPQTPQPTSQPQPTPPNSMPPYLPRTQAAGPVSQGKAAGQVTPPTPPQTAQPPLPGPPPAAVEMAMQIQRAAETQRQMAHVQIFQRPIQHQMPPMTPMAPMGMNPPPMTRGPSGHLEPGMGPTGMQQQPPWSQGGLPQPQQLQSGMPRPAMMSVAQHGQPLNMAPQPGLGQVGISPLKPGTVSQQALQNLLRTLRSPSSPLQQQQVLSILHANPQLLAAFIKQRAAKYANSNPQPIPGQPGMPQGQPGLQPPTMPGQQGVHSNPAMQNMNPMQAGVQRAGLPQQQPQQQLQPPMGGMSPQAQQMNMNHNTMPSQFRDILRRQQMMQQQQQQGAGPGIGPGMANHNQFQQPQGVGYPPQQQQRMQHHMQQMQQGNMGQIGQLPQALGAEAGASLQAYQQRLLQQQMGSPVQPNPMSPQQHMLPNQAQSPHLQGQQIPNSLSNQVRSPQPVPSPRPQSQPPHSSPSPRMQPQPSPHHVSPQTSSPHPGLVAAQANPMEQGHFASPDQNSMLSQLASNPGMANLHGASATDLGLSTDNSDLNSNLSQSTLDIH
Experimental: FIG. 2 depicts (A) filter binding assay to show activation of p300 by TTK21. […] TTK21 dissolved in DMSO is added to the reaction mixture at desired concentrations. Lane 1—Histone only, Lane 2—p300 enzyme added, Lane 3—DMSO added, Lane 4—50 μM TTK21, Lane 5—100 μM TTK21, Lane 6—200 μM TTK21 and Lane 7—275 μM TTK21.
(§1) Highly purified HeLa core histones are incubated in HAT assay buffer at about 30° C. for a time-period of about 10 minutes with or without baculo virus expressed recombinant p300 or CBP in the presence or absence of small molecules (i.e. HAT activators). The incubation is followed by the addition of about 1 μl of 3.6 Ci/mmol ^3H-acetyl CoA (NEN-PerkinElmer) and further incubation for about 10 minutes in a final volume of 30 μl at 30° C. The mixture is blotted onto P-81 (Whatman) filter paper and radioactive counts are recorded on a Wallac 1409 liquid scintillator counter. For gel fluorographic assays, histones are isolated by trichloroacetic acid (TCA) precipitation using 25% TCA. The pellet obtained is washed twice with acetone and dissolved in 2×SDS loading dye, heated for about 5 mins and is followed by separation using 15% SDS-PAGE. Comassie staining is performed to ascertain the presence of equal loading in each reaction and is later dehydrated in DMSO for about 1 hour. […]

CBP = test: HAT filter binding and gel fluorography assays with full length FLAG-CBP; type: biochemical
Experimental: TTK21 dissolved in DMSO is added to the reaction mixture at desired concentrations. Lane 1—Histone only, Lane 2—CBP enzyme added, Lane 3—DMSO added, Lane 4—50 μM TTK21, Lane 5—100 μM TTK21, Lane 6—200 μM TTK21 and Lane 7—275 μM TTK21.
COMPOUND 1 is synthesized using salicylic acid as a substrate as depicted in FIG. 1. […] The concentrations of COMPOUND 1 selected for this particular assay are 50 μM, 100 μM, 200 μM and 275 μM. […] These screening experiments are also repeated with full length FLAG-CBP (FIG. 3).
as §1, with “SDS-PAGE.” for “SDS-PAGE. Comassie staining is performed to ascertain the presence of equal loading in each reaction and is later dehydrated in DMSO for about 1 hour.”

SHSY cells = test: Cell permeability in neural cell lines; type: cell-based
Experimental: The cell permeability tests of COMPOUND 1 alone is also carried out in various neural cell lines such as SHSY cells and the results are found to be similar to HeLa cells.

p300 [2] = biological target: T1, p300; test: HAT filter binding assay with p300; type: biochemical; conditions: for HAT activation (radioactivity counts): 200 μM, HeLa core histones as substrate
Source text: To understand the mechanistic aspects HAT activation various small molecules are derivatized from CTPB. The initial tail less derivative of CTPB is nomenclatured as N-(4Chloro-3-trifluoromethy 1-pheny 1)-2-ethoxybenzamide [CTB]. CTB is further derivatized to TTK series of compounds (COMPOUNDS 1-9) (FIG. 29 A). These compounds are subjected to histone acetyltransferase assays (filter binding assay) to check for their ability to activate p300/CBP HAT. Core histones purified from HeLa nuclear pellet is used as the substrate and p300 purified from baculovirus infected Sf21 cells is used to determine the HAT modulation activity of these compounds. All compounds are used at a concentration of 200 μM in the HAT assays.
Highly purified HeLa core histones are incubated in HAT assay buffer at about 30° C. for a time-period of about 10 minutes with or without baculo virus expressed recombinant p300 or CBP in the presence or absence of small molecules (i.e. HAT activators). The incubation is followed by the addition of about 1 μl of 3.6 Ci/mmol ^3H-acetyl CoA (NEN-PerkinElmer) and further incubation for about 10 minutes in a final volume of 30 μl at 30° C. The mixture is blotted onto P-81 (Whatman) filter paper and radioactive counts are recorded on a Wallac 1409 liquid scintillator counter. For gel fluorographic assays, histones are isolated by trichloroacetic acid (TCA) precipitation using 25% TCA. The pellet obtained is washed twice with acetone and dissolved in 2×SDS loading dye, heated for about 5 mins and is followed by separation using 15% SDS-PAGE. Comassie staining is performed to ascertain the presence of equal loading in each reaction and is later dehydrated in DMSO for about 1 hour. Dehydrated gel is later incubated in scintillation fluid (PPO solution in DMSO) for about 45 minutes and rehydrated again in distilled water for about 4 hours. The gel is then dried using a gel drier and later exposed in an X-ray cassette using a film for about 5 days in −80° cooler. The film is then developed to obtain the intensity profiles for each of the reactions.

[3] = tested on: neurons expressing double cortin; test: Neurogenesis in dentate gyrus of hippocampus, doublecortin staining; type: in vivo, mice; conditions: intraperitoneal; 3 days
Experimental: FIG. 18 depicts CSP-TTK21 induced neurogenesis in the inner wall of dentate gyms of mice hippocampus. […] of either CSP alone or TTK21 alone or CSP-TTK21 is injected intraperitonially into mice and after 3 days the mice are anesthetized and fixed with 4% paraformaldehyde. Brains are dissected out and post-fixed, cryoprotected and frozen. 20 μm thick sections are obtained and the results are analyzed by immunohistochemistry. Further, immunofluorescence assays are performed using antibody against double cortin. Scale bar represents 50 μm.
A-D, Immunohistochemistry analysis of the dentate gyms of mice, 3 days after intraperitonial injection of either CSP alone or CSP-TTK21 (20 mg/kg of body weight) using an antibody against doublecortin (DCX) followed by DAB staining. A typical photograph is shown (A). Scale bars: 100 μm. The timeline for injection and euthanasia is shown. h, hour; d, day. […] (C) The average of the longest dendrites associated to all DCX positive-new neuron within one hippocampus is calculated and is represented as histogram for each condition (CSP: 141.1 μm vs. CSP-TTK21: 176.9 μm, *p=0.0177, 4-6 sections/animal). (D), (A) typical cropped image from A is shown, on which the number of dendrites crossing virtual lines drawned at 60, 90 and 120 μm from the SGZ was counted (n=5 images/animal). […]

Q: What does the source list for CCCOc1ccccc1C(=O)Nc1ccc(Cl)c(C(F)(F)F)c1 [COMPOUND 1, N-(4-Chloro-3-trifluoromethyl-phenyl)-2-n-propoxy-benzamide]?
A: cell permeability (HeLa cells): inability of the COMPOUND 1 molecule itself to enter into mammalian cells; histone H3 acetylation (HeLa cells; 50-275 μM, 24 hrs): no alteration of histone H3 acetylation; cell permeability (HeLa cells; listed as TTK21): impermeable to cells; concentration of maximum activation of p300 (p300 [1]): 275 µM; activation of p300, dose dependence (p300 [1]; 50-275 μM): dose dependent manner; activation of CBP, dose dependence (CBP; 50-275 μM): dose dependent activation of CBP; concentration of maximum activation of CBP (CBP; filter binding and gel fluorography): 275 µM; cell permeability (SHSY cells): inability of the COMPOUND 1 molecule alone to enter into mammalian cells; HAT activation (radioactivity counts) (p300 [2]): one of the most efficient HAT activator; HAT activation (radioactivity counts) (p300 [2]; listed as TTK21): significant increase in radioactivity counts compared to other compounds; concentration of maximum activation of p300 (p300 [2]; filter binding): 250 to 275 µM; activation of p300, dose dependence (p300 [2]; filter binding, 50-275 μM): Dose dependent activation of p300; concentration from which activation of p300 starts (p300 [2]; filter binding, tested 50, 100, 200, 275 μM): 5004; double cortin expression in dentate gyrus [3]: doesn't show double cortin expression

Source: patent US9314539B2, “Nanosphere-histone acetyltransferase (HAT) activator composition, process and methods thereof” (JAWAHARLAL NEHRU CENTRE FOR ADVANCED SCIENTIFIC RESEARCH, priority 2012, dated 2016)
